Assay results taken from patent US4324728A, “Compound nanaomycin A and derivatives thereof and a process for producing the same” (The Kitasato Institute, priority 1976, dated 1982).
Values after ≈ are worked out from the molar mass of the structure shown. Read-outs that look alike come from different tables or passages of the source.

Assays:
Trichophyton ferrugineum = assay: Minimal inhibitory concentration (agar); type: cell-based; settings: pH 6.4, 4 days, 27° C.
[1] = test system: Trichophyton mentagrophytes; assay: Minimal inhibitory concentration (agar); type: cell-based; settings: 96 h, pH 6.4, potato agar, pH 6.4, 4 days, 27° C.
Trichophyton purpureum = assay: Minimal inhibitory concentration (agar); type: cell-based; settings: 96 h, pH 6.4, potato agar, pH 6.4, 4 days, 27° C., read-out: MIC
Piricularia oryzae = assay: microbe, parasite or virus in culture; type: cell-based; settings: 96 h, pH 6.4, potato agar, pH 6.4, 4 days, 27° C.
Trichophyton asteroides = assay: Minimal inhibitory concentration (agar); type: cell-based; settings: pH 6.4, 4 days, 27° C.
Trichophyton violaceum = assay: Minimal inhibitory concentration (agar); type: cell-based; settings: Trichophyton violaceum, 96 h, pH 6.4, potato agar, pH 6.4, 4 days, 27° C.; read-out: MIC
Acute toxicity in mice = settings: intra-penetrial injection
[2] = test system: Mycoplasma gallisepticum KP-13; assay: Minimal inhibitory concentration (PPLO agar); type: cell-based; settings: Mycoplasmoides gallisepticum, KP13, 192 h, pH 7.8, 8 days, 37° C.
Experimental: (§1) H Hokken PPLO agar (pH 7.8, 8 days, 37° C.)
(§2) E Eiken PPLO agar (pH 7.8, 8 days, 37° C.)
(§3) MIC Minimal inhibitory concentration

[3] = test system: Mycoplasma gallisepticum S-6; assay: Minimal inhibitory concentration (PPLO agar); type: cell-based; settings: Mycoplasmoides gallisepticum, S6, 192 h, pH 7.8, 8 days, 37° C.
Experimental: as §1, §2, §3

[4] = test system: Acholeplasma laidlawii (A) PG8; assay: Minimal inhibitory concentration (PPLO agar); type: cell-based; settings: pH 7.8, 8 days, 37° C.
Experimental: as §1, §2, §3

[5] = test system: Mycoplasma gallisepticum 333P (Spiramycin resistant); assay: Minimal inhibitory concentration (PPLO agar); type: cell-based
Experimental: as §1, §2, §3

[6] = test system: Acholeplasma laidlawii (B) Bml; assay: Minimal inhibitory concentration (PPLO agar); type: cell-based; settings: 192 h, pH 7.8, 8 days, 37° C.
Experimental: as §1, §2, §3

mycoplasma = assay: Antimycoplasma activity, paper disc method; type: cell-based
Experimental: Inhibitory zone is assayed by paper disc method (Eiken PPLO agar, pH 7.8,
Nanaomycin A and derivatives thereof according to the present invention are assayed in a similar manner to that designated as the paper disc method by Itoh, et al [J. of Antibiotics, 24, 855-859 (1971)], for example, as follows: […]

Mycoplasma gallinarum = assay: Minimal inhibitory concentration (PPLO agar); type: cell-based; settings: Mycoplasmopsis gallinarum, 192 h, Hokken PPLO agar, pH 7.8, 8 days, 37° C.
Experimental: as §1, §3, §2

Mycoplasma iners = assay: Minimal inhibitory concentration (PPLO agar); type: cell-based; settings: Mycoplasmopsis iners, 192 h; Hokken PPLO agar, pH 7.8, 8 days, 37° C.
Experimental: as §1, §3, §2

Aspergillus niger = assay: Minimal inhibitory concentration (agar); type: cell-based; settings: Aspergillus niger, 96 h; potato agar, pH 6.4, 4 days, 27° C.; read-out: MIC
Experimental: Minimal inhibitory concentration was assayed by agar dilution method
(potato agar, pH 6.4, 27° C., 4 days).
(§4) P potato agar (pH 6.4, 4 days, 27° C.)

[7] = test system: Aspergillus fumigatus IAM 2612; assay: Minimal inhibitory concentration (agar); type: cell-based; settings: IAM2612, 96 h, potato agar, pH 6.4, 4 days, 27° C.
Experimental: as §4, §3

Mycoplasma gallisepticum [8] = assay: Growth inhibition (text summary of Table 1); type: cell-based; settings: Mycoplasmoides gallisepticum, 192 h; read-out: concentration at which growth is inhibited
Experimental: as §1, §2

Mycobacterium smegmatis = assay: Minimal inhibitory concentration (agar); type: cell-based; settings: Mycolicibacterium smegmatis, 48 h; nutrient agar, pH 7.0, 2 days, 37° C.
Experimental: Medium N nutrient agar (pH 7.0, 2 days, 37° C.)
as §3

[9] = test system: Tricophyton metagorphytes; assay: Treatment of dermatomycosis at the back of guinea pigs; type: in vivo; settings: 0.01-1% solution in propyleneglycol-ethanol (3:1 v/v), once daily for 8 days
[10] = test system: Klebsiella pneumoniae PCI 602; assay: Minimal inhibitory concentration (agar); type: cell-based; settings: PCI602, 48 h, nutrient agar, pH 7.0, 2 days, 37° C.
[11] = test system: Xanthomonas oryzae N-5824; assay: microbe, parasite or virus in culture; type: cell-based; settings: N5824, 48 h, pH 7
Mycoplasma gallisepticum [12] = assay: Therapeutic effect on chronic respiratory disease of chickens; type: in vivo
Mycoplasma pneumoniae = assay: Minimal inhibitory concentration (PPLO agar); type: cell-based; settings: 192 h, Eiken PPLO agar, pH 7.8, 8 days, 37° C.
[13] = Microsporum ferrugineum, 96 h, pH 6.4, potato agar, read-out: MIC
[14] = Trichophyton, 96 h, pH 6.4, potato agar, read-out: MIC

Compound: CC(=O)Oc1cccc2c1C(=O)C1=C(CC(CC(=O)O)OC1C)C2=O (stereo not drawn) [Acetylnanaomycin A, acetylnanaomycin A]
- MIC (Trichophyton ferrugineum; [13]): 0.8 µg/mL (≈ 2.32 µM)
- MIC [1]: 0.4 µg/mL (≈ 1.16 µM)
- MIC (Trichophyton purpureum): 1.6 µg/mL (≈ 4.65 µM)
- MIC (Piricularia oryzae): 0.8 µg/mL (≈ 2.32 µM)
- MIC (Trichophyton asteroides; [14]): 0.8 µg/mL (≈ 2.32 µM)
- MIC (Trichophyton violaceum): 0.8 µg/mL (≈ 2.32 µM)
- acute toxicity compared with nanaomycin A (Acute toxicity in mice): lower than that of nanaomycin A

Compound: CC1OC(CC(=O)O)CC2=C1C(=O)c1c(O)cccc1C2=O (stereo not drawn) [Nanaomycin A, nanaomycin A]
- MIC (Trichophyton ferrugineum; [13]): 0.8 µg/mL (≈ 2.65 µM)
- MIC (Trichophyton ferrugineum; potato agar): 1.6 µg/mL (≈ 5.29 µM)
- MIC ([2]; pH 7.8, Eiken PPLO agar): 0.05 µg/mL (≈ 0.165 µM)
- MIC ([2]; pH 7.8, Hokken PPLO agar): < 0.013 µg/mL
- MIC ([3]; pH 7.8, Hokken PPLO agar): < 0.013 µg/mL
- MIC ([3]; Eiken PPLO agar, read-out: MIC): 0.1 µg/mL (≈ 0.331 µM)
- MIC ([4]; Acholeplasma laidlawii, 192 h, Hokken PPLO agar, read-out: MIC): > 25 µg/mL
- MIC ([4]; Eiken PPLO agar): > 25 µg/mL
- MIC ([5]; Eiken PPLO agar, pH 7.8, 8 days, 37° C.): < 0.013 µg/mL
- MIC ([5]; Mycoplasmoides gallisepticum, 192 h, pH 7.8): < 0.013 µg/mL
- activity against spiramycin-resistant Mycoplasma gallisepticum ([5]; in words): strong activity
- MIC ([6]; pH 7.8, Eiken PPLO agar): > 25 µg/mL
- MIC ([6]; pH 7.8, Hokken PPLO agar): 25 µg/mL (≈ 82.7 µM)
- zone of inhibition at 10 µg/mL (mycoplasma; Mycoplasma, 24 h, 10 μg/ml, Eiken PPLO agar, pH 7.8, 37° C., 1 day, read-out: Inhibitory Zone): 20.4 mm
- zone of inhibition at 100 µg/mL (mycoplasma; Mycoplasma, 24 h, 100 μg/ml, Eiken PPLO agar, pH 7.8, 37° C., 1 day, read-out: Inhibitory Zone): 28.7 mm
- antimycoplasma activity compared with deoxyfrenolicin and ethylkalafunginate (mycoplasma; paper disc, Table 5): superior to those of deoxyfrenolicin and ethylkalafunginate
- MIC (Mycoplasma gallinarum): 1.56 µg/mL (≈ 5.16 µM)
- MIC (Mycoplasma iners): 3.12 µg/mL (≈ 10.3 µM)
- MIC (Aspergillus niger): 25 µg/mL (≈ 82.7 µM)
- MIC [7]: 12.5 µg/mL (≈ 41.4 µM)
- MIC (Mycoplasma gallisepticum [8]): ≤ 0.1 µg/mL
- MIC (Mycobacterium smegmatis): 62.5 µg/mL (≈ 207 µM)
- therapeutic effect on erythema and scales [9]: excellent therapeutic effect
- MIC (Trichophyton asteroides; [14]): 0.8 µg/mL (≈ 2.65 µM)
- MIC (Trichophyton asteroides; potato agar): 1.6 µg/mL (≈ 5.29 µM)
- MIC [10]: 31.3 µg/mL (≈ 104 µM)
- MIC [11]: 62.5 µg/mL (≈ 207 µM)
- therapeutic effect on chronic respiratory disease (Mycoplasma gallisepticum [12]): exhibits therapeutic effect
- MIC (Mycoplasma pneumoniae): 0.013 µg/mL (≈ 0.043 µM)
